A word on the IC50: it is the midpoint of a concentration-inhibition curve.

Data on two compounds can be found in ChEMBL document CHEMBL5728983, “Macrocyclic derivative of pyrazol[3,4-d]pyrimidin-3-one, pharmaceutical composition and use thereof” (2022).

For the test, the target named is Wee1-like protein kinase (Homo sapiens, UniProt P30291). Kind of test: Enzymatic Activity of Wee1: In the present disclosure, Wee1 enzyme catalysis assay was carried out using the ATP-Glo Max kinase luminescence detection kit (Promega). Kinase activity was assessed by quantitative detection of the amount of ATP retained in the solution following the kinase reaction. The luminescent signal in the assay is proportional to the amount of ATP and inversely proportional to the kinase activity. The concentration of the compound in the assay ranged from 0.5 nM to 30 μM. The compound was dissolved in 10% DMSO, and 5 μL of the solution was added to 50 μL of the reaction, and the concentration of DMSO in the final reaction was 1%. The reaction was carried out at 30° C. for 50 minutes. 40 mM trishydroxymetyl aminomethane, pH 7.4, 10 mM MgCl2, 0.1 mg/ml BSA, 2 mM DTT, 0.1 mg/ml Poly (Lys, Tyr) substrate, 10 μM ATP and Wee1 were contained in the reaction mixture. After the enzymatic reaction, 50 μL of ATP-Glo Max kinase luminescence detection assay solution (Promega) was added and incubated for 15 minutes at room temperature. The luminescent signal was measured using a microplate reader. In some assays, a known Wee1 inhibitor was added as a positive control. Luminance data was analyzed using Graphpad software.
Wee1-like protein kinase, sequence (P30291 whole entry): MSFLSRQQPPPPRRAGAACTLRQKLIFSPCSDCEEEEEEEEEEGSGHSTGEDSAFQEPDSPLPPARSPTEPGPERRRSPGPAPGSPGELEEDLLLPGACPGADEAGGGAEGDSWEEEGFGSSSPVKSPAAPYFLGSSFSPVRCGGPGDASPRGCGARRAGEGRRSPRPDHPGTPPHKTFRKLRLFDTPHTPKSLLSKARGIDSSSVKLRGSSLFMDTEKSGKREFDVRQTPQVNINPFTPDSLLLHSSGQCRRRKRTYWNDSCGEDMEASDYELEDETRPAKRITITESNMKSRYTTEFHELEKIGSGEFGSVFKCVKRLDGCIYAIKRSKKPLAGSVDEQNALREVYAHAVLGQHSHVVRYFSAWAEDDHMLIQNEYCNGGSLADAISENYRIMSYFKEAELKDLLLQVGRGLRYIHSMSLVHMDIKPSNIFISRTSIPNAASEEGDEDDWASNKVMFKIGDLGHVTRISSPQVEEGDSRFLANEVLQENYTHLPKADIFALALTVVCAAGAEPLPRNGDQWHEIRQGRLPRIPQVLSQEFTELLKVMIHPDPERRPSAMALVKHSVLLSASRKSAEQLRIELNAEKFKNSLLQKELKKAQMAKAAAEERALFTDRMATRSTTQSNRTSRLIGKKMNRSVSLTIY

Each structure is given as a SMILES string.

For the compound `CC(C)N1Cc2cc(Nc3ncc4c(=O)n5n(c4n3)-c3ccc4c(n3)N(CCC/C=C\C5)C(=O)CO4)ccc2C2(CC2)C1`, the IC50 is 10.4 nM.
Turning to `CC(C)N1Cc2ccc(Nc3ncc4c(=O)n5n(c4n3)-c3ccc4c(n3)N(CCC/C=C\C5)C(=O)CO4)cc2C2(CC2)C1`, the 50% inhibitory concentration (IC50) is 10.2 nM.
